What all share (type): cell-based, human
In one experiment the test system is p-MED1 (p-T1457 MED1). Nature of the experiment: Immunoblot of p-MED1 in AR-positive PCa cell lines (VCaP, LNCaP, 22RV1). The settings on record: LNCaP. As for the experimental part: Cell lysates were prepared with RIPA buffer (Boston Bioproducts, BP-115DG)-10 mM Tris-HCl pH 7.5, 1 mM EDTA, 400 mM NaCl, 0.5% NP-40 and 1 mM DTT, supplemented with protease inhibitor cocktail (Pierce, A32965) and phosphatase inhibitor (Thermo, 1861280). For immunoblotting 200 μg total protein extract was boiled in sample buffer and 15-25 μg aliquots were separated by SDS-PAGE and transferred onto Polyvinylidene Difluoride membrane (GE Healthcare, IPVH00010). The membrane was incubated for one hour in blocking buffer [Tris-buffered saline, 0.1% Tween (TBS-T), 5% nonfat dry milk followed by overnight incubation on a rocker at 4° C. with the primary antibody. Following a wash with TBS-T, the blot was incubated with horseradish peroxidase-conjugated secondary antibody for 2 hrs on a rocker at room temperature. The blots were washed again and signals were visualized using enhanced chemiluminescence system as per manufacturer's protocol (GE Healthcare) or Kwik Quant Imager (Kindle Biosciences). Primary antibodies used in the immunoblotting (IB), immunoprecipitation (IP), and Chromatin Immunoprecipitation sequencing (ChIP-seq) assays are as follows: AR_IP, IB, ChIP-Seq (Millipore, 06-680); pS81-AR_IB (Millipore, 07-1375-EMD); RNA Pol II_IP, IB (Abcam, ab5408); ERG_IB (Abcam, a92513); PSA_IB (Dako, A0562); H3-acetyl K27_IP, IB, ChIP Seq (Abcam, ab32104) cPARP_IB (Cell Signaling Technology, 9541s); Cleaved caspase-3_IB (Cell Signaling Technology, 9664t); CDK7_IP, IB (Cell Signaling Technology, 2916s); CDK9_IP, IB (Cell Signaling Technology, 2316s); CDK12_IB (Cell Signaling Technology, 11973S); CDK13_IB (Sigma Cat. #ABE1860); Cyclin H_IB (Cell Signaling Technology, 2927T); HA_IP, IB (Cell Signaling Technology, 2367s); ERK1/2_IP, IB (Cell Signaling Technology, 9107s); phospho-ERK1/2_IB (Cell Signaling Technology, 9101s); phospho-Threonine_IB (Cell Signaling Technology, 9381s); PP2A alpha_IB (Abcam, ab32104); phospho-MED1_IB (Abcam, ab60950); Anti-GST_IB (Cell Signaling Technology, 2624); Anti-AKT_IB (Cell Signaling Technology, 9272); Anti-phosphoAKT_IB(Cell Signaling Technology, 4060); Anti-phospho-AR (Ser-515) _IB (Abeam, ab128250); Anti-RNA Pol 'LIB (Abeam, ab5408); Anti-phospho-pol II (Ser-5)_IB (Abeam, ab ab5095); Anti-phospho-CDK7 (Tlu-170) _IB (Millipore, ABS567); MED1_IP, IB, ChIP Seq (Bethyl, abA300-793A), Ki67_IHC (Cell Signaling Technology, 9661), and GAPDH (14C10), IB (Cell Signaling Technology, 3683s) for loading control.
In general terms: A western blot detects proteins with antibodies after separation by electrophoresis.

Experiment [1] has as its system chromatin-bound p-MED1/MED1. Briefly: Chromatin-bound protein extraction and immunoblot. The settings on record: DHT-stimulated LNCaP, 6 h; THZ1 100 nM, enzalutamide 5 μM. How it is done: Chromatin bound protein extraction was performed following the protocol described in Pawar et al. Briefly, 10 million cells were collected and washed with DPBS, and were resuspended in 250 μl Buffer A (10 mM HEPES pH 7.9, 10 mM KCl, 1.5 mM MgCl2, 0.34 M sucrose, 10% glycerol, 1 mM DTT) supplemented with 0.1% TritonX-100 and incubated on ice for 10 min. The nuclei pellet was collected by centrifugation at 1300×g for 5 min at 4° C., washed in Buffer A and centrifuged again with the same settings. The nuclear pellet was then resuspended in Buffer B (3 mM EDTA, 0.2 mM EGTA, 1 mM DTT) and incubated on ice for 30 min. The chromatin pellet was collected by centrifugation at 1700×g for 5 min at 4° C., washed in Buffer B and centrifuged again with the same settings. The proteins were incubated on ice in Buffer B with 150 mM NaCl for 20 min and centrifuged at 1700×g for 5 min to remove proteins soluble in 150 mM salt concentrations. The pellet was then incubated in Buffer B with 300 mM NaCl on ice for 20 min and centrifuged again at 1700×g to obtain the final chromatin pellet. The chromatin pellet was dissolved in sample buffer, sonicated for 15 seconds, and boiled at 95° C. for 10 min. Samples were analyzed using Immunoblot analysis as described previously. All buffers were supplemented with Pierce protease inhibitor and Halt protease & phosphatase inhibitors.

Experiment [2] has as its system MED1 and AR recruitment to the chromatin. Nature of the experiment: ChIP-seq of genome-wide MED1 and AR binding. The settings on record: VCaP, 10 nM DHT plus 5 μM enzalutamide, 12 h. How it is done:
ChIP was performed using iDeal ChIP-seq Kit for Transcription Factors (Diagenode, C01010170) according to manufacturer's protocol. In brief, the cells were crosslinked with 1% formaldehyde in culture medium for 10 min at room temperature. Cross-linking was terminated by the addition of 1/10 volume 1.25 M glycine for 5 min at room temperature followed by cell lysis and sonication (Bioruptor, Diagenode), resulting in an average chromatin fragment size of 200 bp. Chromatin equivalent to 5×10^6 cells was isolated and incubated with 10 μg antibody overnight at 4° C. (MED1, H3-acetyl K27, AR, and IgG (Diagenode). ChIP-seq libraries were prepared from the ChIP-enriched DNA samples using the TruSeq ChIP Library Preparation Kit (Illumina, IP-202-1012, IP-202-1024) and protocol. In brief, ChIP-enriched DNA (1-10 ng) was converted to blunt-ended fragments. A single A-base was added to fragment ends followed by ligation of Illumina adaptors. The adaptor-modified DNA fragments were enriched by PCR using the Illumina Barcode primers and Phusion DNA polymerase. PCR products were size selected using 3% NuSieve agarose gels (Lonza) followed by gel extraction using QIAEX II reagents (QIAGEN). Libraries were quantified with the Bioanalyzer 2100 (Agilent) and sequenced on the Illumina NextSeq 500 Sequencer (75 nucleotide read length).
Sequencing reads were quality checked with FASTQC (www.bioinformatics.babraham.ac.uk/projects/fastqc) and aligned to the GRCh37 (release 27) genome using the STAR v2.5.1 aligner with default settings. PCR duplicate reads in the aligned bam files were removed using samtools, bam files were converted to CPM normalized bigwig tracks using deeptools, and viewed using the Integrated Genomics Viewer or the UCSC genome browser. Single end reads were extended up to the fragment length (200 bp) along the read direction.
The enrichment peaks for the various transcription factors and histone marks were computed using MACS2, with default settings. Regions found to ubiquitously enriched across a number of next-generation sequencing experiments, also known as the blacklisted peaks (sites.google.com/site/anshulkundaje/projects/blacklists), were excluded in all subsequent analysis.

A further experiment has as its system AR target genes. Nature of the experiment: qRT-PCR of DHT-induced AR target gene expression. The settings on record: LNCaP and VCaP, 10 μM enzalutamide. How it is done:
For AR signaling stimulation experiments, cells were plated in complete media at required confluency. After 24 h cells were washed with DPBS and cultured in RPMI/DMEM without Phenol Red (Invitrogen, 11835030) and 10% charcoal-dextran stripped FBS (Gemini BioProducts, 100-119) for 72 h. Cells were then stimulated with 10 nM DHT for the specific time points.
Total RNA was isolated from cells using miRNeasy Mini Kit (Qiagen, 74106) and cDNA was synthesized from 1 μg total RNA using SuperScriptIV (Life Technologies, 18090200). qRT-PCR was performed using Fast SYBR Master Mix (Life Technologies, 4385617) or Taqman Fast Advance MMIX (Life Technologies, 4444964), and analyzed on QuantStudio3 (Applied Biosystems, USA). The target mRNA expression was quantified using ΔΔCt method, as normalized to GAPDH transcript levels. Primers were designed using Primer3 Input (version 0.4.0) (bioinfo.ut.ee/primer3-0.4.0/primer3) and synthesized by Integrated DNA Technologies.

`COc1ccccc1-c1cc(Nc2cccc(CS(N)(=O)=O)c2)ncn1` [LDC]: the p-MED1 levels entry in the experiment with p-MED1 (p-T1457 MED1) (VCaP, 22RV1, standard culture conditions, 24 h (THZ1 and LDC also with DHT stimulation)) is listed as “no such effect on p-MED1 levels”.

Regarding `CN(C)CCCC(=O)Nc1ccc(C(=O)Nc2cccc(Nc3ncc(Cl)c(-c4c[nH]c5ccccc45)n3)c2)cc1` [THZ1-R], the MED1 phosphorylation entry in the experiment with p-MED1 (p-T1457 MED1) (100 nM, 12 h) is recorded as “does not affect MEDI phosphorylation”.

`CNC(=O)c1ccc(N2C(=S)N(c3ccc(C#N)c(C(F)(F)F)c3)C(=O)C2(C)C)cc1F` [enzalutamide]: the “chromatin-bound levels of p-MED1/MED1” value in experiment [1] is “unable to completely dissociate p-MED1 from the chromatin”. In experiment [2], the “MED1 chromatin association (ChIP-seq)” value is given as “completely abolished” and the “average ChIP-seq signal for AR” value was “significantly reversed”. Also, the “DHT-induced AR target gene expression” value with AR target genes was “AR target reversal”.
